The record followed here is patent US10028482B2, “Disinfecting and deodorizing compositions and methods with novel polymeric binding system” (priority 2014, dated 2018).

Data set [1] in a line: Retention of chlorine in air dried coatings on soft surface substrates (iodometric titration). The format is physicochemical. The text has this:
The purpose of this experiment was to measure the beneficial effect of binder plus SHA on retention of chlorine in air dried coatings of N-halamine formulations on a soft surface substrate. Solutions of MCDMH, MCDMH plus hydroxyethylcellulose binder plus SHA, each containing equivalent amounts of oxidative Cl were applied to 9 cm^2 of soft surface substrate (cotton fabrics or paper), and allowed to air dry at room temperature in a chemical fume hood. Determinations of chlorine per cm^2 were made on fabrics sampled after 4 hours, 24 hours, 48 hours, and 96 hours. The remaining chlorine was measured by iodometric titration after soaking of test samples in deionized water for 1 hour at room temperature.

Data set [2] can be described thus: Retention of chlorine in air dried coatings on hard surface substrate (iodometric titration). Conditions: Formica coupons. Type of data set: physicochemical. As to the method: The purpose of this experiment was to measure the effect of binder plus SHA on retention of chlorine in air dried coatings of water-based N-halamine formulations on a hard surface substrate. The procedure used one gram of MCDMH with or without 0.2 grams of hydroxyethylcellulose binder and 0.1 grams of SHA dissolved in 100 ml of water as the surface treatments. Solutions of MCDMH, MCDMH plus binder and SHA containing equivalent amounts of oxidative chlorine were applied to 9 cm^2 of hard surface substrate (Formica coupons), and allowed to dry at room temperature in a chemical fume hood. Determinations of chlorine levels per cm^2 were made on coupons sampled after 4 hours, 24 hours, 48 hours, and 96 hours. The chlorine remaining on each surface was measured by iodometric titration of solutions obtained after soaking of test samples in deionized water for 1 hour at room temperature.

Each structure is given as a SMILES string.

In the case of `CC1(C)NC(=O)N(Cl)C1=O` [MCDMH], the “Chlorine Content” value is on record as 2.41 ×10^18 Cl/cm^2 in data set [1] (Cotton, 4 h); 2.04 ×10^18 Cl/cm^2 in data set [1] (Cotton, 24 h); 1.56 ×10^18 Cl/cm^2 in data set [1] (Cotton, 48 h); 0.89 ×10^18 Cl/cm^2 in data set [1] (Cotton, 96 h); 2.74 ×10^18 Cl/cm^2 in data set [1] (Paper, 4 h); 2.12 ×10^18 Cl/cm^2 in data set [1] (Paper, 24 h). For the same compound, the “Chlorine Content” value in data set [1] (Paper, 48 h) is 1.87 ×10^18 Cl/cm^2; in data set [1] (Paper, 96 h) it was 1.04 ×10^18 Cl/cm^2; in data set [2] (4 h), 3.61 ×10^18 Cl/cm^2; in data set [2] (24 h) it was 3.25 ×10^18 Cl/cm^2; in data set [2] (48 h) it was 3.01 ×10^18 Cl/cm^2; in data set [2] (96 h) it was 2.75 ×10^18 Cl/cm^2.
